According to patent publication US6914045B2, “Glycopeptide antibiotics” (Wyeth Holdings Corporation, priority 2001, dated 2005):
≈ marks a conversion by molar mass, not a printed value.

Experiments:
Assay in all cases: in vitro antibacterial evaluation, MIC by broth dilution
Format in all cases: cell-based
Streptococcus sp. = conditions: broth dilution, 18 hours at 35° C.; for MIC Streptococcus pneumoniae (ATCC 6301): strain ATCC 6301; for MIC Streptococcus pneumoniae (GC 1894): strain GC 1894; for MIC Streptococcus pyogenes (GC 4563): strain GC 4563; for MIC Streptococcus agalactiae (GC 4564): strain GC 4564; for MIC Streptococcus pneumoniae (GC 4565): strain GC 4565
Procedure, shortened: (§1)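 MIC, the lowest antibiotic concentration preventing growth, was read across 64-0.06 μg/mL with 5×10^5 CFU/mL inoculum. Method followed NCCLS M7-A2 broth dilution using Mueller-Hinton II; Gram-positive strains covered recent methicillin-, penicillin- and/or vancomycin-resistant clinical isolates.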

Staphylococcus sp. = conditions: broth dilution, 18 hours at 35° C.; for MIC Staphylococcus aureus (GC 1131): strain GC 1131
Procedure, shortened: as §1

Escherichia coli = system: Escherichia coli
Procedure, shortened: as §1

Enterococcus sp. = conditions: broth dilution, 18 hours at 35° C.; for MIC Enterococcus faecalis (ATCC 29212): strain ATCC 29212; for MIC Enterococcus faecalis (GC 2242): strain GC 2242; for MIC Enterococcus faecium (GC 2243): strain GC 2243; for MIC Enterococcus faecalis (GC 2691): strain GC 2691; for MIC Enterococcus faecalis (GC 3059): strain GC 3059; for MIC Enterococcus faecalis (GC 4552): strain GC 4552; for MIC Enterococcus faecalis (GC 4553): strain GC 4553; for MIC Enterococcus faecalis (GC 4554): strain GC 4554; for MIC Enterococcus faecium (GC 4556): strain GC 4556; for MIC Enterococcus faecium (GC 4557): strain GC 4557; for MIC Enterococcus avium (GC 4558): strain GC 4558; for MIC Enterococcus faecalis (GC 6189): strain GC 6189
Procedure, shortened: as §1

Q: Which “MIC Streptococcus pneumoniae (ATCC 6301)” value (Streptococcus sp.; inoculum 5×10^5 CFU/mL) does the source give for `CC(C)=CCOc1cccc(C2OCC3OC(OC4C(CO)OC(Oc5ccc(CC6NC(=O)C(C(C)c7ccccc7)NC(=O)CNC(=O)C(CO)NC(=O)C(C(O)C7CNC(=N)N7C7OC(CO)C(O)C(O)C7O)NC(=O)C(C(O)C7CNC(=N)N7)NC6=O)cc5)C(O)C4O)C(O)C(O)C3O2)c1` (stereo not drawn) [Example 165] here?
A: Its value is 0.12 µg/mL (≈ 0.0818 µM).

Q: What about the “MIC Streptococcus pneumoniae (GC 1894)” value (Streptococcus sp.; inoculum 5×10^5 CFU/mL) of the same molecule?
A: Its value is under 0.06 µg/mL.

Q: What about the “MIC Streptococcus pyogenes (GC 4563)” value (Streptococcus sp.; inoculum 5×10^5 CFU/mL) of the same molecule?
A: Its value is 0.12 µg/mL (≈ 0.0818 µM).

Q: What about the “MIC Streptococcus agalactiae (GC 4564)” value (Streptococcus sp.; inoculum 5×10^5 CFU/mL) of the same molecule?
A: Its value is 1 µg/mL (≈ 0.681 µM).

Q: What about the “MIC Streptococcus pneumoniae (GC 4565)” value (Streptococcus sp.; inoculum 5×10^5 CFU/mL) of the same molecule?
A: Its value is 0.12 µg/mL (≈ 0.0818 µM).

Q: And the “MIC Streptococcus pneumoniae (ATCC 6301)” value (Streptococcus sp.)?
A: The value was 0.12 µg/mL (≈ 0.0818 µM).

Q: And the “MIC Streptococcus pneumoniae (GC 1894)” value (Streptococcus sp.)?
A: The value was under 0.06 µg/mL.

Q: What about the “MIC Streptococcus pyogenes (GC 4563)” value (Streptococcus sp.) of the same molecule?
A: The value was 0.12 µg/mL (≈ 0.0818 µM).

Q: What about the “MIC Streptococcus agalactiae (GC 4564)” value (Streptococcus sp.) of the same molecule?
A: The value was 1 µg/mL (≈ 0.681 µM).

Q: And the “MIC Streptococcus pneumoniae (GC 4565)” value (Streptococcus sp.)?
A: Its value is 0.12 µg/mL (≈ 0.0818 µM).

Q: And the “MIC Staphylococcus aureus (GC 1131)” value (Staphylococcus sp.; inoculum 5×10^5 CFU/mL)?
A: Its value is 16 µg/mL (≈ 10.9 µM).

Q: What about the “MIC Staphylococcus aureus (ATCC 29213)” value (Staphylococcus sp.; strain ATCC 29213) of the same molecule?
A: Its value is 16 µg/mL (≈ 10.9 µM).

Q: And the “MIC Staphylococcus aureus (GC 1131)” value (Staphylococcus sp.)?
A: The value was 16 µg/mL (≈ 10.9 µM).

Q: And the “MIC Staphylococcus aureus (GC 3051)” value (Staphylococcus sp.; strain GC 3051)?
A: Its value is 32 µg/mL (≈ 21.8 µM).

Q: And the “MIC Staphylococcus aureus (GC 3053)” value (Staphylococcus sp.; strain GC 3053)?
A: Its value is 16 µg/mL (≈ 10.9 µM).

Q: What about the “MIC Staphylococcus aureus (GC 4541)” value (Staphylococcus sp.; strain GC 4541) of the same molecule?
A: Its value is 16 µg/mL (≈ 10.9 µM).

Q: What about the “MIC Staphylococcus aureus (GC 4542)” value (Staphylococcus sp.; strain GC 4542) of the same molecule?
A: The value was 16 µg/mL (≈ 10.9 µM).

Q: And the “MIC Staphylococcus aureus-SMITH (GC 4543)” value (Staphylococcus sp.; strain GC 4543)?
A: Its value is 16 µg/mL (≈ 10.9 µM).

Q: What about the “MIC Staphylococcus aureus (GC 4544)” value (Staphylococcus sp.; strain GC 4544) of the same molecule?
A: Its value is 16 µg/mL (≈ 10.9 µM).

Q: What about the “MIC Staphylococcus aureus (GC 4545)” value (Staphylococcus sp.; strain GC 4545) of the same molecule?
A: The value was 16 µg/mL (≈ 10.9 µM).

Q: And the “MIC Staphylococcus haemolyticus (GC 4546)” value (Staphylococcus sp.; strain GC 4546)?
A: Its value is 16 µg/mL (≈ 10.9 µM).

Q: What about the “MIC Coagulase Negative Staphylococcus (GC 4547)” value (Staphylococcus sp.; strain GC 4547) of the same molecule?
A: Its value is 16 µg/mL (≈ 10.9 µM).

Q: What about the “MIC Coagulase Negative Staphylococcus (GC 4548)” value (Staphylococcus sp.; strain GC 4548) of the same molecule?
A: Its value is 8 µg/mL (≈ 5.45 µM).

Q: And the “MIC Coagulase Negative Staphylococcus (GC 4549)” value (Staphylococcus sp.; strain GC 4549)?
A: The value was 8 µg/mL (≈ 5.45 µM).

Q: What about the “MIC Coagulase Negative Staphylococcus (GC 4551)” value (Staphylococcus sp.; strain GC 4551) of the same molecule?
A: Its value is 16 µg/mL (≈ 10.9 µM).

Q: What about the “MIC Coagulase Negative Staphylococcus (GC 6257)” value (Staphylococcus sp.; strain GC 6257) of the same molecule?
A: Its value is 8 µg/mL (≈ 5.45 µM).

Q: What about the “MIC Staphylococcus aureus-SMITH (GC 4543)” value (Staphylococcus sp.; strain SMITH GC 4543) of the same molecule?
A: The value was 16 µg/mL (≈ 10.9 µM).

Q: What about the “MIC Escherichia coli (ATCC 25922)” value (Escherichia coli; strain ATCC 25922, 18 hours at 35° C.) of the same molecule?
A: Its value is over 64 µg/mL.

Q: What about the “MIC Escherichia coli (GC 4559)” value (Escherichia coli; strain GC 4559, 18 hours at 35° C.) of the same molecule?
A: Its value is over 64 µg/mL.

Q: And the “MIC Escherichia coli (GC 4560)” value (Escherichia coli; strain GC 4560, 18 hours at 35° C.)?
A: The value was 16 µg/mL (≈ 10.9 µM).

Q: And the “MIC Enterococcus faecalis (ATCC 29212)” value (Enterococcus sp.; inoculum 5×10^5 CFU/mL)?
A: The value was 16 µg/mL (≈ 10.9 µM).

Q: What about the “MIC Enterococcus faecalis (GC 2242)” value (Enterococcus sp.; inoculum 5×10^5 CFU/mL) of the same molecule?
A: Its value is 16 µg/mL (≈ 10.9 µM).

Q: What about the “MIC Enterococcus faecium (GC 2243)” value (Enterococcus sp.; inoculum 5×10^5 CFU/mL) of the same molecule?
A: The value was 16 µg/mL (≈ 10.9 µM).

Q: What about the “MIC Enterococcus faecalis (GC 2691)” value (Enterococcus sp.; inoculum 5×10^5 CFU/mL) of the same molecule?
A: Its value is 16 µg/mL (≈ 10.9 µM).

Q: What about the “MIC Enterococcus faecalis (GC 3059)” value (Enterococcus sp.; inoculum 5×10^5 CFU/mL) of the same molecule?
A: Its value is 16 µg/mL (≈ 10.9 µM).

Q: And the “MIC Enterococcus faecalis (GC 4552)” value (Enterococcus sp.; inoculum 5×10^5 CFU/mL)?
A: The value was 16 µg/mL (≈ 10.9 µM).

Q: And the “MIC Enterococcus faecalis (GC 4553)” value (Enterococcus sp.; inoculum 5×10^5 CFU/mL)?
A: The value was 16 µg/mL (≈ 10.9 µM).

Q: And the “MIC Enterococcus faecalis (GC 4554)” value (Enterococcus sp.; inoculum 5×10^5 CFU/mL)?
A: Its value is 32 µg/mL (≈ 21.8 µM).

Q: And the “MIC Enterococcus faecium (GC 4556)” value (Enterococcus sp.; inoculum 5×10^5 CFU/mL)?
A: The value was 16 µg/mL (≈ 10.9 µM).

Q: And the “MIC Enterococcus faecium (GC 4557)” value (Enterococcus sp.; inoculum 5×10^5 CFU/mL)?
A: The value was 16 µg/mL (≈ 10.9 µM).

Q: And the “MIC Enterococcus avium (GC 4558)” value (Enterococcus sp.; inoculum 5×10^5 CFU/mL)?
A: Its value is 16 µg/mL (≈ 10.9 µM).

Q: And the “MIC Enterococcus faecalis (GC 6189)” value (Enterococcus sp.; inoculum 5×10^5 CFU/mL)?
A: Its value is 16 µg/mL (≈ 10.9 µM).

Q: And the “MIC Enterococcus faecalis (ATCC 29212)” value (Enterococcus sp.)?
A: The value was 16 µg/mL (≈ 10.9 µM).

Q: What about the “MIC Enterococcus faecalis (GC 2242)” value (Enterococcus sp.) of the same molecule?
A: The value was 16 µg/mL (≈ 10.9 µM).

Q: And the “MIC Enterococcus faecium (GC 2243)” value (Enterococcus sp.)?
A: The value was 16 µg/mL (≈ 10.9 µM).

Q: What about the “MIC Enterococcus faecalis (GC 2691)” value (Enterococcus sp.) of the same molecule?
A: The value was 16 µg/mL (≈ 10.9 µM).

Q: And the “MIC Enterococcus faecalis (GC 3059)” value (Enterococcus sp.)?
A: Its value is 16 µg/mL (≈ 10.9 µM).

Q: And the “MIC Enterococcus faecalis (GC 4552)” value (Enterococcus sp.)?
A: The value was 16 µg/mL (≈ 10.9 µM).

Q: What about the “MIC Enterococcus faecalis (GC 4553)” value (Enterococcus sp.) of the same molecule?
A: The value was 16 µg/mL (≈ 10.9 µM).

Q: And the “MIC Enterococcus faecalis (GC 4554)” value (Enterococcus sp.)?
A: The value was 32 µg/mL (≈ 21.8 µM).

Q: What about the “MIC Enterococcus faecium (GC 4556)” value (Enterococcus sp.) of the same molecule?
A: Its value is 16 µg/mL (≈ 10.9 µM).

Q: And the “MIC Enterococcus faecium (GC 4557)” value (Enterococcus sp.)?
A: The value was 16 µg/mL (≈ 10.9 µM).

Q: And the “MIC Enterococcus avium (GC 4558)” value (Enterococcus sp.)?
A: Its value is 16 µg/mL (≈ 10.9 µM).

Q: What about the “MIC Enterococcus faecalis (GC 6189)” value (Enterococcus sp.) of the same molecule?
A: The value was 16 µg/mL (≈ 10.9 µM).
